Results published in patent publication US20250026762A1, “FUSED PYRAZOLE UREA ANALOGS AS GLUCOSYLCERAMIDE SYNTHASE INHIBITORS” (Merck Sharp & Dohme LLC, priority 2021, published 2025).

Target: glucosylceramide synthase (GCS) enzyme in Golgi preparations from human A375 malignant melanoma skin cells (Homo sapiens (Human), UniProt Q16739)
Assay: UDP-Glo glucosylceramide synthase biochemical assay
Conditions: 1.5 μg crude golgi preparation; C6 ceramide and UDP-glucose at 2×Km; 20 h incubation at room temperature; luminescence
Excerpt: UDP-Glo™ Glucosylceramide Synthase Biochemical Assay
A UDP-Glo™ glucosylceramide synthase biochemical assay was utilized to evaluate the effect of test compounds on the activity of endogenous levels of GCS enzyme contained within Golgi preparations isolated from human A375 malignant melanoma skin cells. The UDP-Glo™ glucosylceramide synthase assay uses UDP-Glucose as a nucleotide-glycosyl donor and ceramide as substrate acceptor molecules. In the reaction, glucosylceramide synthase (GCS) transfers glucose from UDP-Glucose to ceramide. Glucosylceramide and UDP are released as products.
Using Promega's UDP-Glo™ Glycosyltransferase assay kit (Promega Corporation, Madison, WI, USA (Promega)), GCS activity was indirectly measured by detecting the amount of UDP produced. An aliquot of GCS enzyme (1.5 μg crude golgi preparation, total protein) and titrated test compound were aliquoted to each well and incubated for 30 minutes at room temperature. Substrate mixture was prepared by mixing C6 ceramide (Avanti Polar Lipids, Alabaster, AL USA (Avanti)) (micelles prepared at 0.6 mM in 0.6 mM DOPC) and UDP-glucose (20 μM; Promega), at concentrations equivalent to 2×Km, in assay buffer (25 mM HEPES (pH 7.5), 50 mM KCl, 5 mM MgCl2). An equivalent volume of substrate mixture was then added to each well. Following a 20 h incubation at room temperature to allow for GCS turnover of substrate, an equal volume of UDP detection reagent (Promega) was added to each well and incubated for an additional 75 minutes at room temperature to simultaneously convert the accumulated UDP product into ATP and generate light in a luciferase reaction. The generated light was detected using a luminometer. […] luminescence values (RLUs) were normalized to mean “min” and “max” effects, as determined on each plate. “Min” was defined as the mean of the values of the wells treated with vehicle (DMSO) and which represent 0% inhibition; “max” was defined as the mean of the values of the wells treated with a reference inhibitor and which represent the 100% effect. Values for % Emax and EC50 were determined by best-fitting the normalized data to a curve in Activity Base along a four-parameter logistic nonlinear regression (4PL) model (based on the Levenberg-Marquardt algorithm and defined by the equation below): […]
where: n is 4PMin (bottom of the curve); m is 4PMax (top of the curve); i is IP (inflection point of curve); andp is slope. See Levenberg, K., “A Method for the Solution of Certain Problems in Least Squares”, Quart. Appl. Math. 2, (1944), pp 164-168 and Marquardt, D., “An Algorithm for Least Squares Estimation on Nonlinear Parameters”, SIAM J. Appl. Math. 11, (1963) pp 431-441.

Chain of glucosylceramide synthase (GCS) enzyme in Golgi preparations from human A375 malignant melanoma skin cells (Q16739 whole entry): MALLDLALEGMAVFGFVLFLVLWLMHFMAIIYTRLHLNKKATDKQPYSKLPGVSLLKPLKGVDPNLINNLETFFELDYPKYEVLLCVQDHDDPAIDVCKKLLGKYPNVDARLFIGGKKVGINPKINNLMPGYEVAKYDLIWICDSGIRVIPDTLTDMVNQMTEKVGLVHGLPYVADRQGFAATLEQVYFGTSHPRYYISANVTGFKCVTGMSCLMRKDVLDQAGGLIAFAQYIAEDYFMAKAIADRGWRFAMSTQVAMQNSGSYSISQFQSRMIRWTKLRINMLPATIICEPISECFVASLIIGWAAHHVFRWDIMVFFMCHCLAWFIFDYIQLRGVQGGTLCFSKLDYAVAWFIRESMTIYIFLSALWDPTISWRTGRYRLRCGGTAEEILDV

| SMILES | EC50 [nM] |
| --- | --- |
| O=C(N1CCN2CCC1CC2)n1nc(-c2ccc(F)cc2)c2c1CCC2 [Compound 12, 1,4-diazabicyclo[3.2.2]nonan-4-yl-[3-(4-fluorophenyl)-5,6-dihydro-4H-cyclopenta[c]pyrazol-1-yl]methanone] | 0.3 |
| O=C(N1CCN2CCC1CC2)n1nc(-c2ccc(OC(F)F)cc2)c2c1CCC2 [Compound 5, 1,4-diazabicyclo[3.2.2]nonan-4-yl-[3-[4-(difluoromethoxy)phenyl]-5,6-dihydro-4H-cyclopenta[c]pyrazol-1-yl]methanone] | 0.3 |
| O=C(N1CCN2CCC1CC2)n1nc(-c2ccc(F)cc2)c2c1[C@H]1C[C@H]1C2 [Compound 11, (1,4-diazabicyclo[3.2.2]nonan-4-yl)((4aS,5aS)-3-(4-fluorophenyl)-4,4a,5,5a-tetrahydro-1H-cyclopropa[4,5]cyclopenta[1,2-c]pyrazol-1-yl)methanone] | 0.1 |
| O=C(N1CCN2CCC1CC2)n1nc(-n2cc(C(F)(F)F)cn2)c2c1[C@H]1C[C@H]1C2 [Compound 61, (1,4-diazabicyclo[3.2.2]nonan-4-yl)((4aS,5aS)-3-(4-(trifluoromethyl)-1H-pyrazol-1-yl)-4,4a,5,5a-tetrahydro-1H-cyclopropa[4,5]cyclopenta[1,2-c]pyrazol-1-yl)methanone] | 0.1 |
| O=C(N1CCN2CCC1CC2)n1nc(-c2ccc(F)cc2)c2c1CC1CC21 (single isomer, unassigned) [Compound 15, (R,R) or (S,S)--(1,4-diazabicyclo[3.2.2]nonan-4-yl)(3-(4-fluorophenyl)-3b,4,4a,5-tetrahydro-1H-cyclopropa[3,4]cyclopenta[1,2-c]pyrazol-1-yl)methanone] | 0.1 |
| Cc1ccccc1-c1nn(C(=O)N2CCN3CCC2CC3)c2c1CCOC2 [Compound 28, (1,4-diazabicyclo[3.2.2]nonan-4-yl)(3-(o-tolyl)-4,7-dihydropyrano[3,4-c]pyrazol-1(5H)-yl)methanone] | 6.6 |
| Cc1c(-c2ccc(F)cc2)nn(C(=O)N2CCN3CCC2CC3)c1C [Compound 64, (1,4-diazabicyclo[3.2.2]nonan-4-yl)(3-(4-fluorophenyl)-4,5-dimethyl-1H-pyrazol-1-yl)methanone] | 8.8 |
| O=C(N1CCN2CCC1CC2)n1nc(-c2ccc(F)cc2)c2c1CCC(F)(F)C2 [Compound 19, (1,4-diazabicyclo[3.2.2]nonan-4-yl)(5,5-difluoro-3-(4-fluorophenyl)-4,5,6,7-tetrahydro-1H-indazol-1-yl)methanone] | 8.2 |
| CC1CCc2c(-c3ccc(F)cc3)nn(C(=O)N3CCN4CCC3CC4)c21 (single isomer, unassigned) [Compound 16, R or S-(1,4-diazabicyclo[3.2.2]nonan-4-yl)(3-(4-fluorophenyl)-6-methyl-5,6-dihydrocyclopenta[c]pyrazol-1(4H)-yl)methanone] | 0.4 |
| O=C(N1CCN2CCC1CC2)n1nc(-n2cc(Cl)cn2)c2c1CCOC2 [Compound 60, (1,4-diazabicyclo[3.2.2]nonan-4-yl)(3-(4-chloro-1H-pyrazol-1-yl)-6,7-dihydropyrano[4,3-c]pyrazol-1(4H)-yl)methanone] | 4.8 |
| COc1c(F)cccc1-c1nn(C(=O)N2CCN3CCC2CC3)c2c1CCC2 [Compound 38, 1,4-diazabicyclo[3.2.2]nonan-4-yl-[3-(3-fluoro-2-methoxy-phenyl)-5,6-dihydro-4H-cyclopenta[c]pyrazol-1-yl]methanone] | 0.6 |
| COc1ncc(-c2nn(C(=O)N3CCN4CCC3CC4)c3c2COCC3)cc1Cl [Compound 47, (1,4-diazabicyclo[3.2.2]nonan-4-yl)(3-(5-chloro-6-methoxypyridin-3-yl)-6,7-dihydropyrano[4,3-c]pyrazol-1(4H)-yl)methanone] | 8.3 |
| O=C(N1CCN2CCC1CC2)n1nc(-c2ccc(F)c(Cl)c2)c2c1COCC2 [Compound 7, [3-(3-chloro-4-fluoro-phenyl)-5,7-dihydro-4H-pyrano[3,4-c]pyrazol-1-yl]-(1,4-diazabicyclo[3.2.2]nonan-4-yl)methanone] | 1 |
| O=C(N1CCN2CCC1CC2)n1nc(-c2ccc(F)c(F)c2F)c2c1CCOC2 [Compound 42, (1,4-diazabicyclo[3.2.2]nonan-4-yl)(3-(2,3,4-trifluorophenyl)-6,7-dihydropyrano[4,3-c]pyrazol-1(4H)-yl)methanone] | 0.9 |
| O=C(N1CCN2CCC1CC2)n1nc(C2=CCC(F)(F)CC2)c2c1COCC2 [Compound 35, (1,4-diazabicyclo[3.2.2]nonan-4-yl)(3-(4,4-difluorocyclohex-1-en-1-yl)-4,7-dihydropyrano[3,4-c]pyrazol-1(5H)-yl)methanone] | 38.5 |
| COc1cccc(-c2nn(C(=O)N3CCN4CCC3CC4)c3c2CCC3)c1F [Compound 41, 1,4-diazabicyclo[3.2.2]nonan-4-yl-[3-(2-fluoro-3-methoxy-phenyl)-5,6-dihydro-4H-cyclopenta[c]pyrazol-1-yl]methanone] | 0.5 |
| O=C(N1CCN2CCC1CC2)n1nc(-c2cccc(Cl)c2F)c2c1COCC2 [Compound 27] | 1.6 |
| O=C(N1CCN2CCC1CC2)n1nc(-c2ccc(Cl)cn2)c2c1COCC2 [Compound 23, (1,4-diazabicyclo[3.2.2]nonan-4-yl)(3-(5-chloropyridin-2-yl)-4,7-dihydropyrano[3,4-c]pyrazol-1(5H)-yl)methanone] | 3.7 |
| O=C(N1CCN2CCC1CC2)n1nc(-c2ccc(F)cc2)c2c1CC(F)(F)C2 [Compound 20, (1,4-diazabicyclo[3.2.2]nonan-4-yl)(5,5-difluoro-3-(4-fluorophenyl)-5,6-dihydrocyclopenta[c]pyrazol-1(4H)-yl)methanone] | 4.7 |
| O=C(N1CCN2CCC1CC2)n1nc(-c2ccc(F)c(Cl)c2)c2c1CCOC2 [Compound 36, (1,4-diazabicyclo[3.2.2]nonan-4-yl)(3-(3-chloro-4-fluorophenyl)-6,7-dihydropyrano[4,3-c]pyrazol-1(4H)-yl)methanone] | 0.3 |
| COc1nccc(-c2nn(C(=O)N3CCN4CCC3CC4)c3c2CCOC3)c1Cl [Compound 34, (1,4-diazabicyclo[3.2.2]nonan-4-yl)(3-(3-chloro-2-methoxypyridin-4-yl)-4,7-dihydropyrano[3,4-c]pyrazol-1(5H)-yl)methanone] | 15.3 |
| O=C(N1CCN2CCC1CC2)n1nc(-n2cc(C(F)(F)F)cn2)c2c1COCC2 [Compound 53, (1,4-diazabicyclo[3.2.2]nonan-4-yl)(3-(4-(trifluoromethyl)-1H-pyrazol-1-yl)-4,7-dihydropyrano[3,4-c]pyrazol-1(5H)-yl)methanone] | 4.1 |
| O=C(N1CCN2CCC1CC2)n1nc(-n2cc(C(F)(F)F)cn2)c2c1CCC2 [Compound 54, (1,4-diazabicyclo[3.2.2]nonan-4-yl)(3-(4-(trifluoromethyl)-1H-pyrazol-1-yl)-5,6-dihydrocyclopenta[c]pyrazol-1(4H)-yl)methanone] | 0.8 |
| O=C(N1CCN2CCC1CC2)n1nc(-c2ccc(F)cc2)c2c1CCOC2 [Compound 13, 1,4-diazabicyclo[3.2.2]nonan-4-yl-[3-(4-fluorophenyl)-6,7-dihydro-4H-pyrano[4,3-c]pyrazol-1-yl]methanone] | 4.1 |
| O=C(N1CCN2CCC1CC2)n1nc(-c2ccc(OC(F)F)c(Cl)c2)c2c1COCC2 [Compound 2, 1,4-diazabicyclo[3.2.2]nonan-4-yl(3-(3-chloro-4-(difluoromethoxy)phenyl)-4,5-dihydropyrano[3,4-c]pyrazol-1(7H)-yl)methanone] | 2.9 |
| O=C(N1CCN2CCC1CC2)n1nc(-c2ccc(Cl)cn2)c2c1CCOC2 [Compound 48, (1,4-diazabicyclo[3.2.2]nonan-4-yl)(3-(5-chloropyridin-2-yl)-6,7-dihydropyrano[4,3-c]pyrazol-1(4H)-yl)methanone] | 2 |
| Cn1nc(C(F)(F)F)cc1-c1nn(C(=O)N2CCN3CCC2CC3)c2c1CCC2 [Compound 33, 1,4-diazabicyclo[3.2.2]nonan-4-yl-[3-[2-methyl-5-(trifluoromethyl)pyrazol-3-yl]-5,6-dihydro-4H-cyclopenta[c]pyrazol-1-yl]methanone] | 5.9 |
| COc1cnn(-c2nn(C(=O)N3CCN4CCC3CC4)c3c2CCC3)c1 [Compound 58, (1,4-diazabicyclo[3.2.2]nonan-4-yl)(3-(4-methoxy-1H-pyrazol-1-yl)-5,6-dihydrocyclopenta[c]pyrazol-1(4H)-yl)methanone] | 10 |
